# Assay results: patent US20240358668A1, “METHODS AND CO[…] AM[…] CARD[…] USING (R)-2-AMINO-3-PH[…]” (AXSOME THERAPEUTICS, INC., priority 2021, published 2024)
# Marks after values point to notes of the source that are not given here.
# Assays:
# Type in all cases: in vivo, human
# [1] = tested on: participants with narcolepsy; assay: Study 14-002, 12-week randomized controlled trial: 24-hour ABPM at screening and week 8; details: for effect on percentage of participants with a non-dipping BP profile: screening to week 8, any dose studied
# Procedure: (§1) Solriamfetol is a dopamine and norepinephrine reuptake inhibitor indicated to improve wakefulness in adult patients with excessive daytime sleepiness associated with narcolepsy (75-150 mg/d) or obstructive sleep apnea (37.5-150 mg/d). Previous studies reported small mean increases in blood pressure (BP); however, the time course of these effects has not been evaluated. […] These analyses evaluated the effects of solriamfetol treatment on BP using 24-hour ambulatory blood pressure monitoring (ABPM) and on the percentage of narcolepsy patients with a non-dipping BP profile.
# Twenty-four-hour ABPM was conducted at baseline and week 8 in a 12-week randomized controlled trial in participants with narcolepsy (n=236). Blood pressure was collected every 30 minutes.
# [2] = 1-year open-label extension (OLE) study: weight change
# Procedure: A 1-year open-label extension (OLE) study was performed with 374 participants to examined whether clinically significant weight loss (≥5%) in this population had favorable effects on biomarkers of cardiovascular risk compared to no such weight loss. The study measured changes in weight and BP (parent study baseline to OLE week 40) and clinical laboratory assessments (OLE baseline to week 40) in participants with narcolepsy (n=124) or OSA (n=250) who received solriamfetol at doses of 75, 150, or 300 mg/d.
# Increased prevalence of obesity has been reported in patients with narcolepsy and obstructive sleep apnea (OSA). […] We examined whether clinically significant weight loss (≥5%) in this population had favorable effects on biomarkers of cardiovascular risk compared to no such weight loss.
# We evaluated changes in weight and BP (parent study baseline to OLE week 40) and clinical laboratory assessments (OLE baseline to week 40) in participants with narcolepsy (n=124) or OSA (n=250) from the OLE study.
# [3] = tested on: adults with EDS associated with OSA; assay: 12-week phase 3 trial in OSA: vital signs, antihypertensive medication use, AEs of hypertension/increased BP
# Procedure: (§2) An exploratory analysis of data from one 12-week randomized, controlled trial (Schweitzer P K, et al. Am J Respir Crit Care Med. 2019; 199(11):1421-31) and 1 long-term open-label extension (OLE) trial in adults with EDS (Epworth Sleepiness Scale score ≥10) associated with OSA (Malhotra A, et al. Sleep. 2020; 43(2):zsz220) was carried out. Participants with current/prior use of primary OSA therapy (positive airway pressure [PAP], oral pressure therapy, oral appliance, or upper airway stimulation) were eligible, regardless of the level of adherence to primary OSA therapy; participants who had not attempted to use primary OSA therapy were excluded. Adherence to primary OSA therapy was defined as PAP use ≥4 hours/night on ≥70% of nights/week, historical report (with investigator concurrence) of oral appliance use on ≥70% of nights, or effective surgical intervention. Nonadherence to primary OSA therapy was defined as device use at a level lower than specific above, no device use at all, or surgical intervention deemed no longer effective. Participants received placebo or solriamfetol 37.5 (12-week trial only), 75, 150, or 300 mg/day for 12 weeks (12-week trial) or ≤40 weeks (OLE trial). Vital signs, antihypertensive medication use, and adverse events (AEs) were monitored throughout the studies. Baseline demographics, CV comorbidities, and concomitant medications, the percentage of participants who initiated antihypertensive medication use during treatment, and the incidence of and discontinuations due to AEs of hypertension/increased BP were summarized for the safety population (participants who received ≥1 dose of study medication).
# [4] = tested on: adults with EDS associated with OSA; assay: Long-term OLE trial in OSA: vital signs, antihypertensive medication use, AEs of hypertension/increased BP
# Procedure: as §2
# participants with OSA = assay: Study 14-003, 12-week randomized controlled trial: 24-hour ABPM at screening and week 8; details: for effect on percentage of participants with a non-dipping BP profile: screening to week 8, any dose studied
# Procedure: as §1, with “with” for “with narcolepsy (75-150 mg/d) or”, “(OSA; 37.5-150 mg/d) or narcolepsy (75-150” for “(37.5-150”, “OSA” for “narcolepsy”
# Twenty-four-hour ABPM was conducted at baseline and week 8 in a 12-week randomized controlled trial in participants with OSA (n=474). Blood pressure was collected every 30 minutes.
# [5] = highest approved dose of 150 mg/d
# [6] = 37.5 mg, listed as solriamfetol
structure (smiles),measurement,setting,value
"NC(=O)OC[C@H](N)Cc1ccccc1 [Solriamfetol, (R)-2-amino-3-phenylpropyl carbamate]","Mean Change in DBP on ABPM from Screening to Week 8, Mean (SD)",[1]; 75 mg,1.4 (5.13) mmHg
same,"Mean Change in HR on ABPM from Screening to Week 8, Mean (SD)",[1]; 75 mg,1.0 (7.95) bpm
same,"Mean Change in SBP on ABPM from Screening to Week 8, Mean (SD)",[1]; 75 mg,1.8 (6.53) mmHg
same,"Mean Change in DBP on ABPM from Screening to Week 8, Mean (SD)","[1]; 75 mg, listed as solriamfetol",1.4 mmHg
same,"Mean Change in SBP on ABPM from Screening to Week 8, Mean (SD)","[1]; 75 mg, listed as solriamfetol",1.8 mmHg
same,"Mean Change in DBP on ABPM from Screening to Week 8, Mean (SD)",[1]; 150 mg,0.4 (4.46) mmHg
same,"Mean Change in HR on ABPM from Screening to Week 8, Mean (SD)",[1]; 150 mg,0.7 (7.12) bpm
same,"Mean Change in SBP on ABPM from Screening to Week 8, Mean (SD)",[1]; 150 mg,−0.5 (5.51) mmHg
same,"Mean Change in DBP on ABPM from Screening to Week 8, Mean (SD)","[1]; 150 mg, listed as solriamfetol",0.4 mmHg
same,"Mean Change in SBP on ABPM from Screening to Week 8, Mean (SD)","[1]; 150 mg, listed as solriamfetol",−0.5 mmHg
same,"Mean Change in DBP on ABPM from Screening to Week 8, Mean (SD)",[1]; 300 mg,3.0 (4.97) mmHg
same,"Mean Change in HR on ABPM from Screening to Week 8, Mean (SD)",[1]; 300 mg,5.3 (7.55) bpm
same,"Mean Change in SBP on ABPM from Screening to Week 8, Mean (SD)",[1]; 300 mg,2.4 (5.97) mmHg
same,"Mean Change in DBP on ABPM from Screening to Week 8, Mean (SD)","[1]; 300 mg, listed as solriamfetol",3.0 mmHg
same,"Mean Change in SBP on ABPM from Screening to Week 8, Mean (SD)","[1]; 300 mg, listed as solriamfetol",2.4 mmHg
same,percentage of non-dippers (<10% decrease in MAP during sleep),"[1]; combined solriamfetol, week 8 (baseline 48%)",39%
same,time course of effects on BP (24-hour ABPM),[1]; [5],transient across the day
same,effect on percentage of participants with a non-dipping BP profile,[1],not observed to have an increase
same,effect on percentage of participants with a non-dipping BP profile,[1]; listed as solriamfetol,did not increase
same,participants with ≥5% weight loss,"[2]; 1-year OLE, narcolepsy or OSA, 75 mg/d",4.5%
same,participants with ≥5% weight loss,"[2]; 1-year OLE, narcolepsy or OSA, 150 mg/d",17.3%
same,participants with ≥5% weight loss,"[2]; 1-year OLE, narcolepsy or OSA, 300 mg/d",32.4%
same,participants with ≥5% weight gain,"[2]; of 374 participants, all doses, 34 participants, week 40",9.1 % of total population
same,participants with ≥5% weight loss,"[2]; of 374 participants, all doses, 96 participants, week 40",25.7%
same,total participants with AEs of hypertension/increased BP,[3]; 12-week study,10 participants
same,AE of HTN/increased BP,"[3]; 12-week study, 37.5 mg",0 n (%)
same,Discontinuation due to AE of HTN/increased BP,"[3]; 12-week study, 37.5 mg",0 n (%)
same,Initiated anti-HTN,"[3]; 12-week study, 37.5 mg",1 (1.7) n (%)
same,AE of HTN/increased BP,"[3]; 12-week study, 75 mg",0 n (%)
same,Discontinuation due to AE of HTN/increased BP,"[3]; 12-week study, 75 mg",0 n (%)
same,Initiated anti-HTN,"[3]; 12-week study, 75 mg",0 n (%)
same,"AE of HTN/increased BP, (%)","[3]; 12-week study, 150 mg",(4.3) %
same,"Discontinuation due to AE of HTN/increased BP, (%)","[3]; 12-week study, 150 mg",(0.9)^b %
same,Initiated anti-HTN,"[3]; 12-week study, 150 mg",1 (0.9) n (%)
same,"AE of HTN/increased BP, (%)","[3]; 12-week study, 300 mg",(4.2) %
same,Discontinuation due to AE of HTN/increased BP,"[3]; 12-week study, 300 mg",0 n (%)
same,Initiated anti-HTN,"[3]; 12-week study, 300 mg",2 (1.7) n (%)
same,serious CV AEs,[3]; 12-week trial,no serious CV AEs
same,change in DBP from baseline to week 40,[4]; OLE,0.29 mm Hg
same,change in HR from baseline to week 40,[4]; OLE,−1.94 bpm
same,change in SBP from baseline to week 40,[4]; OLE,−0.49 mm Hg
same,total participants with AEs of hypertension/increased BP,[4]; OLE,22 participants
same,serious AE of cerebrovascular accident,[4]; OLE trial,1
same,Discontinuation due to AE of HTN/increased BP,"[4]; OLE, 75 mg",1 (0.2)^d n (%)
same,Initiated anti-HTN,"[4]; OLE, 75 mg",3 (6.1) n (%)
same,AE of HTN/increased BP,"[4]; OLE, 75 mg, % of participants that ever received the dose level (n = 417)",4 (1.0) n (%)
same,"Discontinuation due to AE of HTN/increased BP, (%)","[4]; OLE, 150 mg",(0.2)^d %
same,Initiated anti-HTN,"[4]; OLE, 150 mg",2 (1.4) n (%)
same,"AE of HTN/increased BP, (%)","[4]; OLE, 150 mg, % of participants that ever received the dose level (n = 402)",(1.5) %
same,"Discontinuation due to AE of HTN/increased BP, (%)","[4]; OLE, 300 mg",(0.3)^e %
same,Initiated anti-HTN,"[4]; OLE, 300 mg",3 (1.3) n (%)
same,"AE of HTN/increased BP, (%)","[4]; OLE, 300 mg, % of participants that ever received the dose level (n = 326)",(3.7) %
same,"Mean Change in DBP on ABPM from Screening to Week 8, Mean (SD)",participants with OSA; 37.5 mg,0.8 (6.09) mmHg
same,"Mean Change in HR on ABPM from Screening to Week 8, Mean (SD)",participants with OSA; 37.5 mg,0.7 (5.57) bpm
same,"Mean Change in SBP on ABPM from Screening to Week 8, Mean (SD)",participants with OSA; 37.5 mg,0.7 (10.19) mmHg
same,"Mean Change in DBP on ABPM from Screening to Week 8, Mean (SD)",participants with OSA; [6],0.8 mmHg
same,"Mean Change in SBP on ABPM from Screening to Week 8, Mean (SD)",participants with OSA; [6],0.7 mmHg
same,"Mean Change in DBP on ABPM from Screening to Week 8, Mean (SD)",participants with OSA; 75 mg,0.7 (6.55) mmHg
same,"Mean Change in HR on ABPM from Screening to Week 8, Mean (SD)",participants with OSA; 75 mg,0.4 (7.70) bpm
same,"Mean Change in SBP on ABPM from Screening to Week 8, Mean (SD)",participants with OSA; 75 mg,2.2 (9.82) mmHg
same,"Mean Change in DBP on ABPM from Screening to Week 8, Mean (SD)","participants with OSA; 75 mg, listed as solriamfetol",0.7 mmHg
same,"Mean Change in SBP on ABPM from Screening to Week 8, Mean (SD)","participants with OSA; 75 mg, listed as solriamfetol",2.2 mmHg
same,"Mean Change in DBP on ABPM from Screening to Week 8, Mean (SD)",participants with OSA; 150 mg,−0.2 (5.10) mmHg
same,"Mean Change in HR on ABPM from Screening to Week 8, Mean (SD)",participants with OSA; 150 mg,1.5 (6.53) bpm
same,"Mean Change in SBP on ABPM from Screening to Week 8, Mean (SD)",participants with OSA; 150 mg,−0.5 (8.64) mmHg
same,"Mean Change in DBP on ABPM from Screening to Week 8, Mean (SD)","participants with OSA; 150 mg, listed as solriamfetol",−0.2 mmHg
same,"Mean Change in SBP on ABPM from Screening to Week 8, Mean (SD)","participants with OSA; 150 mg, listed as solriamfetol",−0.5 mmHg
same,"Mean Change in DBP on ABPM from Screening to Week 8, Mean (SD)",participants with OSA; 300 mg,2.5 (8.66) mmHg
same,"Mean Change in HR on ABPM from Screening to Week 8, Mean (SD)",participants with OSA; 300 mg,1.9 (5.56) bpm
same,"Mean Change in SBP on ABPM from Screening to Week 8, Mean (SD)",participants with OSA; 300 mg,2.9 (13.41) mmHg
same,"Mean Change in DBP on ABPM from Screening to Week 8, Mean (SD)","participants with OSA; 300 mg, listed as solriamfetol",2.5 mmHg
same,"Mean Change in SBP on ABPM from Screening to Week 8, Mean (SD)","participants with OSA; 300 mg, listed as solriamfetol",2.9 mmHg
same,percentage of non-dippers (<10% decrease in MAP during sleep),"participants with OSA; combined solriamfetol, week 8 (baseline 55%)",53%
same,time course of effects on BP (24-hour ABPM),participants with OSA; [5],transient across the day
same,effect on percentage of participants with a non-dipping BP profile,participants with OSA,not observed to have an increase
same,effect on percentage of participants with a non-dipping BP profile,participants with OSA; listed as solriamfetol,did not increase
